Reference: US8546451B2 (priority 2005, dated 2013)

What was measured:
[1] = molecular target: PPAR-α (Homo sapiens (Human), UniProt Q07869); experiment: Cross-reactivity transcriptional activation assay, PPAR-α; type: cell-based; settings: agonist and antagonist modes
Description: Compound IV was screened for cross-reactivity against rat isoforms of glucocorticoid receptor (GR), mineralocorticoids receptor (MR), progesterone receptor (PR), androgen receptor (AR) and human isoforms of farnesoid X receptor (FXR), liver X receptor (LXR), peroxisome proliferator-activated receptors (PPAR-α and PPAR-γ), and retinoid X receptor (RXR-α) in both agonist and antagonist modes in transcriptional activation assays.

[2] = test system: CYP1A2; experiment: CYP450 induction in vitro, CYP1A2; type: in vitro ADME
[3] = Mutagenicity
[4] = test system: human peripheral blood lymphocytes; experiment: Chromosomal aberrations in human peripheral blood lymphocytes in vitro; type: cell-based; settings: concentrations up to 200 μM
[5] = test system: dogs; experiment: Single and repeated oral administration toxicity in dogs; type: in vivo
Description: Compound IV was well-tolerated by rats and dogs after single and repeated oral administration (up to 28 days).

Chain of PPAR-α (Q07869 whole entry, canonical isoform): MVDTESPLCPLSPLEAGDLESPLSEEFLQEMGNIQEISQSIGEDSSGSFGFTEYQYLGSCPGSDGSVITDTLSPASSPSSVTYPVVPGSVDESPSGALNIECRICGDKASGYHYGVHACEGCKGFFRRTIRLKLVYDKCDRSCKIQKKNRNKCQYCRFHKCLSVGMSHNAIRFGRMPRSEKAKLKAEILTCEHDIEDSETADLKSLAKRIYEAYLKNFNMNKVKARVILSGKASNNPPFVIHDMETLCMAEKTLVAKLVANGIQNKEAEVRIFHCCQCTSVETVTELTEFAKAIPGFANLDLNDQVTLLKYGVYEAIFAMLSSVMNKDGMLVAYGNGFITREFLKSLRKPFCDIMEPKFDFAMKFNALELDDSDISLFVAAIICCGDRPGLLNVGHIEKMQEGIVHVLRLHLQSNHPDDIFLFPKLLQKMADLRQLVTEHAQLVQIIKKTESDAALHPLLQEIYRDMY

SMILES: O=C(c1ccc(O)c(F)c1)N(c1ccc(O)cc1)c1ccc(F)cc1 [Compound IV, 3-fluoro-N-(4-fluorophenyl)-4-hydroxy-N-(4-hydroxyphenyl)benzamide]
- agonist or antagonist activity [1]: did not display any agonist or antagonist activity
- induction of CYP1A2 [2]: does not induce
- mutagenicity [3]: not mutagenic
- structural or numeric chromosomal aberrations [4]: did not induce structural or numeric chromosomal aberrations
- tolerability ([5]; dogs, single and repeated oral administration (up to 28 days)): well-tolerated
- pathologic changes in kidney, liver, heart and other non-target-related organs ([5]; dogs, up to 28 days oral): no pathologic changes observed
- toxicity findings ([5]; male or female dogs, oral, up to 28 days): no serious physical signs, body weight effects, clinical pathology changes, ophthalmologic, electrocardiographic, or histopathologic changes
